# Biological target: Ryanodine receptor (Myzus persicae)
# Test: Binding affinity to Myzus persicae (green peach aphid) ryanodine receptor by radioligand binding assay
smiles,measurement,value
CNC(=O)c1cc(Cl)cc(C)c1NC(=O)c1cc(Br)nn1-c1ncccc1Cl [3-bromo-N-(4-chloro-2-methyl-6-(methylcarbamoyl)phenyl)-1-(3-chloropyridin-2-yl)-1H-pyrazole-5-carboxamide],IC50,2 nM

# From BindingDB's records for doi:10.1002/ps.3406 (2013)
